According to US10538555B2, “Macrocyclic inhibitors of the PD-1/PD-L1 and CD80(B7-1)/PD-L1 protein/protein interactions” (BRISTOL-MYERS SQUIBB COMPANY, priority 2014, dated 2020):
*1 amine or outer side, *2 acyl side, *3 side chain or, on linkers, in order; H or OH if unused. Where a SMILES comes first, the peptide text is derived from it. Bridges are numbered along the chain shown (N, C = ends). [ ]: non-standard residue; d: D form. ξ: configuration not given here. Trp(1-CH2COOH) = N[C@@H](Cc1cn(CC(=O)O)c2ccccc12)C(=O)O; Phe(3,4,5-F3) = N[C@@H](Cc1cc(F)c(F)c(F)c1)C(=O)O; Trp(5-Cl) = N[C@@H](Cc1c[nH]c2ccc(Cl)cc12)C(=O)O; NMePhe(4-F) = CN[C@@H](Cc1ccc(F)cc1)C(=O)O; X8 = O=C([C@H](CC1CNc2ccccc21)N[*:1])[*:2]; d(cisHyp) = O=C(O)[C@H]1C[C@@H](O)CN1; Hyp = O=C(O)[C@@H]1C[C@@H](O)CN1; NMeF = CN[C@@H](Cc1ccccc1)C(=O)O; X1 = O=C([C@H]1COCCN1[*:1])[*:2]; NMeNle = CCCC[C@H](NC)C(=O)O; hSer = N[C@@H](CCO)C(=O)O; NMeA = CN[C@@H](C)C(=O)O; Orn = NCCC[C@H](N)C(=O)O; Dab = NCC[C@H](N)C(=O)O; Dap = NC[C@H](N)C(=O)O; ξC = NC(CS)C(=O)O; Sar = CNCC(=O)O

Molecular target: T1, Human PD-L1/PD-1 (Homo sapiens, UniProt Q9NZQ7)
T1 construct: TVMV protease cleavage site (C); made in house; host or cells: HEK293T cells
Assay: HTRF Human PD-L1/PD-1 binding assay (PD-1-Ig/PD-L1-His)
Conditions: PD-L1-His 10 nM, PD-1-Ig 20 nM; class symbol; read-out: HTRF Human PD-L1/PD-1 Binding Assay IC50 Range
Procedure, shortened: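 Step 1: compound with PD-L1-His (10 nM final), 15 min. Step 2: PD-1-Ig (20 nM final), 15 min. Step 3: Eu-cryptate anti-Ig (1 nM) plus APC anti-His (20 nM), 30 min equilibration. Signal taken as 665 nm/620 nm ratio.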

T1 sequence (Q9NZQ7 with tags, fused parts or gaps): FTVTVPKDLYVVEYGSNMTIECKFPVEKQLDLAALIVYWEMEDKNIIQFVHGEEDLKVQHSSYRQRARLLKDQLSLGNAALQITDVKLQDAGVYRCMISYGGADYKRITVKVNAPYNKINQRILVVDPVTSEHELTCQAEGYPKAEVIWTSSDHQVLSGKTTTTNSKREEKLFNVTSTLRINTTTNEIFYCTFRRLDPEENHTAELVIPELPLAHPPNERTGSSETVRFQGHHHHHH

Structure (SMILES)	IC50 [nM]
CCCC[C@H]1C(=O)N(C)CC(=O)N[C@@H](CC(=O)O)C(=O)N[C@@H](C(C)C)C(=O)N(C)[C@@H](Cc2ccccc2)C(=O)N[C@@H](Cc2ccc(O)cc2)C(=O)N(C)CC(=O)N[C@@H](Cc2c[nH]c3ccc(Cl)cc23)C(=O)N[C@@H](Cc2ccc(O)cc2)C(=O)N[C@@H](CC(C)C)C(=O)N[C@H](C(=O)NCC(N)=O)CSCC(=O)N[C@@H](Cc2ccccc2)C(=O)N(C)[C@@H](Cc2ccccc2)C(=O)N1C [Example 3236] ({CH2CO}-F[NMeF][NMeNle][Sar]DV[NMeF]Y[Sar][Trp(5-Cl)]YLCG-NH2; thioether N-13)	10 to 99.9
CCCC[C@H]1C(=O)N2CCC[C@@H]2C(=O)N[C@@H](CC(=O)O)C(=O)N[C@@H](C(C)C)C(=O)N(C)[C@@H](Cc2ccccc2)C(=O)N[C@@H](CCC(=O)O)C(=O)N2CCOC[C@@H]2C(=O)N[C@@H](Cc2c[nH]c3ccccc23)C(=O)N[C@@H](Cc2ccc(O)cc2)C(=O)N[C@@H](CC(N)=O)C(=O)N[C@H](C(=O)NCC(N)=O)CSCC(=O)N[C@@H](Cc2cc(F)c(F)c(F)c2)C(=O)N(C)[C@@H](Cc2ccc(F)cc2)C(=O)N1C [Example 10597] ({CH2CO}-[Phe(3,4,5-F3)][NMePhe(4-F)][NMeNle][dP]DV[NMeF]E[X1]WYNCG-NH2; thioether N-13)	1 to 9.9
CCCC[C@H]1C(=O)N2CCC[C@@H]2C(=O)N[C@@H](CC(=O)O)C(=O)N[C@@H](C(C)C)C(=O)N(C)[C@@H](Cc2ccccc2)C(=O)N[C@@H](CC(=O)O)C(=O)N2C[C@H](O)C[C@@H]2C(=O)N[C@@H](Cc2c[nH]c3ccccc23)C(=O)N[C@@H](Cc2ccc(O)cc2)C(=O)N[C@@H](CCO)C(=O)N[C@H](C(=O)NCC(N)=O)CSCC(=O)N[C@@H](Cc2cc(F)c(F)c(F)c2)C(=O)N(C)[C@@H](Cc2ccccc2)C(=O)N1C [Example 10172] ({CH2CO}-[Phe(3,4,5-F3)][NMeF][NMeNle][dP]DV[NMeF]D[d(cisHyp)]WY[hSer]CG-NH2; thioether N-13)	10 to 99.9
CCCC[C@H]1C(=O)N(C)[C@@H](CCCC)C(=O)N[C@@H](CCC(=O)O)C(=O)N[C@H](C(=O)NCC(N)=O)CSCC(=O)N[C@@H](Cc2ccc(O)cc2)C(=O)N(C)[C@@H](C)C(=O)N[C@@H](CC(=O)O)C(=O)N2CCC[C@H]2C(=O)N[C@@H](CO)C(=O)N[C@@H](CC(C)C)C(=O)N2C[C@H](O)C[C@H]2C(=O)N[C@@H](Cc2c[nH]c3ccccc23)C(=O)N[C@@H](CO)C(=O)N[C@@H](CC2CNc3ccccc32)C(=O)N1C (some centres unmarked) [Example 5184] ({CH2CO}-Y[NMeA]DPSL[Hyp]WS[X8][NMeNle][NMeNle]ECG-NH2; thioether N-14)	10 to 99.9
CCCC[C@H]1C(=O)N2C[C@H](O)C[C@@H]2C(=O)N[C@@H](CC(=O)O)C(=O)N[C@@H](C(C)C)C(=O)N(C)[C@@H](Cc2ccccc2)C(=O)N[C@@H](CC(=O)O)C(=O)N2C[C@H](O)C[C@@H]2C(=O)N[C@@H](Cc2c[nH]c3ccccc23)C(=O)N[C@@H](Cc2ccc(O)cc2)C(=O)N[C@@H](CCO)C(=O)N[C@H](C(=O)NCC(N)=O)CSCC(=O)N[C@@H](Cc2cc(F)c(F)c(F)c2)C(=O)N(C)[C@@H](Cc2ccccc2)C(=O)N1C [Example 10173] ({CH2CO}-[Phe(3,4,5-F3)][NMeF][NMeNle][d(cisHyp)]DV[NMeF]D[d(cisHyp)]WY[hSer]CG-NH2; thioether N-13)	10 to 99.9
CCCC[C@H]1C(=O)N(C)[C@@H](CCCC)C(=O)N[C@@H](CCCN)C(=O)N[C@H](C(=O)NCC(N)=O)CSCC(=O)N[C@@H](Cc2ccc(OC)cc2)C(=O)N(C)[C@@H](C)C(=O)N[C@@H](CCN)C(=O)N2CCC[C@H]2C(=O)N[C@@H](Cc2cnc[nH]2)C(=O)N[C@@H](CCC(=O)O)C(=O)N2C[C@H](O)C[C@H]2C(=O)N[C@@H](Cc2c[nH]c3ccccc23)C(=O)N[C@@H](CCN)C(=O)N[C@@H](Cc2c[nH]c3ccccc23)C(=O)N1C [Example 7090] ({CH2CO}-Y(Me)[NMeA][Dab]PHE[Hyp]W[Dab]W[NMeNle][NMeNle][Orn]CG-NH2; thioether N-14)	1 to 9.9
CCCC[C@H]1C(=O)N(C)[C@@H](CCCC)C(=O)N[C@@H](CCCNC(=N)N)C(=O)NC(C(=O)NCC(N)=O)CSCC(=O)N[C@@H](Cc2ccc(O)cc2)C(=O)N(C)[C@@H](C)C(=O)N[C@@H](CC(N)=O)C(=O)N2CCC[C@H]2C(=O)N[C@@H](CC(N)=O)C(=O)N[C@@H](CC(C)C)C(=O)N2CCC[C@H]2C(=O)N[C@@H](Cc2c[nH]c3ccccc23)C(=O)N[C@@H](CCO)C(=O)N[C@@H](Cc2c[nH]c3ccccc23)C(=O)N1C (some centres unmarked) [Example 9128] ({CH2CO}-Y[NMeA]NPNLPW[hSer]W[NMeNle][NMeNle]R[ξC]G-NH2; thioether N-14)	1 to 9.9
CCCC[C@H]1C(=O)N(C)[C@@H](CCCC)C(=O)N[C@@H](CCCNC(=N)N)C(=O)NC(C(=O)NCC(N)=O)CSCC(=O)N[C@@H](Cc2ccc(O)cc2)C(=O)N(C)[C@@H](C)C(=O)N[C@@H](CC(N)=O)C(=O)N2CCC[C@H]2C(=O)N[C@@H](CO)C(=O)N[C@@H](CCO)C(=O)N2C[C@H](O)C[C@H]2C(=O)N[C@@H](Cc2c[nH]c3ccccc23)C(=O)N[C@@H](CCO)C(=O)N[C@@H](Cc2c[nH]c3ccccc23)C(=O)N1C (some centres unmarked) [Example 10052] ({CH2CO}-Y[NMeA]NPS[hSer][Hyp]W[hSer]W[NMeNle][NMeNle]R[ξC]G-NH2; thioether N-14)	1 to 9.9
CCCC[C@H]1C(=O)N2CCC[C@@H]2C(=O)N[C@@H](CC(=O)O)C(=O)N[C@@H](C(C)C)C(=O)N(C)[C@@H](Cc2ccccc2)C(=O)N[C@@H](CCC(=O)O)C(=O)N2CCOC[C@@H]2C(=O)N[C@@H](Cc2c[nH]c3ccccc23)C(=O)N[C@@H](Cc2ccc(O)cc2)C(=O)N[C@@H](CCCN)C(=O)N[C@H](C(=O)NCC(N)=O)CSCC(=O)N[C@@H](Cc2cc(F)c(F)c(F)c2)C(=O)N(C)[C@@H](Cc2ccc(F)cc2)C(=O)N1C [Example 10596] ({CH2CO}-[Phe(3,4,5-F3)][NMePhe(4-F)][NMeNle][dP]DV[NMeF]E[X1]WY[Orn]CG-NH2; thioether N-13)	1 to 9.9
CCCC[C@H]1C(=O)N(C)[C@@H](CCCC)C(=O)N[C@@H](C)C(=O)N[C@H](C(=O)NCC(N)=O)CSCC(=O)N[C@@H](Cc2ccc(O)cc2)C(=O)N(C)[C@@H](C)C(=O)N[C@@H](CC(N)=O)C(=O)N2CCC[C@H]2C(=O)N[C@@H](CN)C(=O)N[C@@H](CCC(=O)O)C(=O)N2C[C@H](O)C[C@H]2C(=O)N[C@@H](Cc2c[nH]c3ccccc23)C(=O)N[C@@H](CCN)C(=O)N[C@@H](Cc2cn(CC(=O)O)c3ccccc23)C(=O)N1C [Example 5168] ({CH2CO}-Y[NMeA]NP[Dap]E[Hyp]W[Dab][Trp(1-CH2COOH)][NMeNle][NMeNle]ACG-NH2; thioether N-14)	1 to 9.9
CCCC[C@H]1C(=O)N(C)[C@@H](CCCC)C(=O)N[C@@H](CCC(=O)O)C(=O)N[C@H](C(=O)NCC(N)=O)CSCC(=O)N[C@@H](Cc2ccc(O)cc2)C(=O)N(C)[C@@H](C)C(=O)N[C@@H](CC(=O)O)C(=O)N2CCC[C@H]2C(=O)N[C@@H](CN)C(=O)N[C@@H](CCC(N)=O)C(=O)N2C[C@H](O)C[C@H]2C(=O)N[C@@H](Cc2c[nH]c3ccccc23)C(=O)N[C@@H](CO)C(=O)N[C@@H](Cc2c[nH]c3ccccc23)C(=O)N1C [Example 5246] ({CH2CO}-Y[NMeA]DP[Dap]Q[Hyp]WSW[NMeNle][NMeNle]ECG-NH2; thioether N-14)	1 to 9.9
